Where two headings read alike, the source gives them in different places.
What was measured:
Assay type in all cases: in vivo
Plutella xylostella = Plutella xylostella killing test; settings: 144 h, active ingredient 500 ppm, dipped cabbage leaf, second instar larvae, after 6 days, 25° C., read-out: insect mortality
Description: (§1) The water-dispersible powder prepared in accordance with Formulation example 2 was diluted in water so that the concentration of the active ingredient was 500 ppm. A cabbage leaf was dipped in this liquid agent, and air-dried, and then put into a plastic cup. Ten second instar larvae of Plutella xylostella were released in the cup, and the cup was lidded. Then, the cup was placed in a thermostatic chamber at 25° C., and the number of dead insects was examined after 6 days, and the insect mortality was determined by the calculation formula of numerical formula 1. The test was conducted singly.

Nilaparvata lugens = Nilaparvata lugens killing activity test; settings: 144 h, active ingredient 500 ppm, dipped paddy, second instar larvae, after 6 days, 25° C., read-out: insect mortality
Description: The water-dispersible powder prepared in accordance with Formulation example 2 was diluted in water so that the concentration of the active ingredient was 500 ppm. Paddy was dipped in this liquid agent, and then put into a plastic cup. Ten second instar larvae of Nilaparvata lugens were released in the plastic cup, and the cup was lidded, and placed in a thermostatic chamber at 25° C. After 6 days, the number of live insects was counted, and the insect mortality was determined by the calculation formula of numerical formula 1. The test was conducted singly.

Aphis gossypii = Aphis gossypii killing test; settings: read-out: insect mortality
Description: The water-dispersible powder prepared in accordance with Formulation example 2 was diluted in water so that the concentration of the active ingredient was 500 ppm. A nursery plant of cucumber preliminarily inoculated with nymphs of Aphis gossypii was dipped in this liquid agent, and air-dried. The nursery plant of cucumber after the treatment was placed in a thermostatic chamber at 25° C., and the number of live insects was counted after 3 days, and the insect mortality was determined by the calculation formula of numerical formula 1. The test was conducted singly.

Helicoverpa armigera = Helicoverpa armigera killing test; settings: 144 h, active ingredient 500 ppm, dipped cabbage leaf, newly hatched larvae, after 6 days, 25° C., read-out: insect mortality
Description: as §1, with “Five newly hatched” for “Ten second instar”, “Helicoverpa armigera” for “Plutella xylostella”, “in duplicate.” for “singly.”

[1] = active ingredient 500 ppm, dipped cucumber nursery plant inoculated with nymphs, after 3 days, 25° C.

Row | SMILES | mortality at 500 ppm (Plutella xylostella) | mortality at 500 ppm (Nilaparvata lugens) | mortality at 500 ppm (Aphis gossypii; [1]) | mortality at 500 ppm (Helicoverpa armigera) | mortality at 500 ppm (Aphis gossypii; in Cucumis sativus)
1 | Cc1ccccc1-c1cn(-c2cccnc2)nc1C(N)=O [A-0020, 1-(pyridine-3-yl)-4-(2-methylphenyl)-1H-pyrazole-3-carboxamide] | ≥ 50% | ≥ 50% | ≥ 50% | ≥ 50% | –
2 | NC(=O)c1nn(-c2cccnc2)cc1-c1ccccc1C(F)(F)F [A-0044, 1-(pyridine-3-yl)-4-[2-(trifluoromethyl)phenyl]-1H-pyrazole-3-carboxamide] | – | – | ≥ 50% | – | –
3 | COc1cc(Cl)ccc1-c1cn(-c2cccnc2)nc1C(N)=O [A-0634, 4-(4-chloro-2-methoxyphenyl)-1-(pyridine-3-yl)-1H-pyrazole-3-carboxamide] | ≥ 50% | ≥ 50% | ≥ 50% | ≥ 50% | –
4 | COCC(=O)NC(=O)c1nn(-c2cccnc2)cc1-c1ccccc1C [A-4808, N-(2-methoxyacetyl)-1-(pyridine-3-yl)-4-(2-methylphenyl)-1H-pyrazole-3-carboxamide] | – | ≥ 50% | ≥ 50% | – | –
5 | Cc1ccccc1-c1cn(-c2cccnc2)nc1C(N)=S [A-8646, 1-(pyridine-3-yl)-4-(2-methylphenyl)-1H-pyrazole-3-carbothioamide] | ≥ 50% | ≥ 50% | – | – | –
6 | Cc1ccccc1-c1cn(-c2ccc[n+]([O-])c2)nc1C(N)=O [A-8862, 3-[3-carbamoyl-4-(2-methylphenyl)-1H-pyrazole-1-yl]pyridine-1-oxide] | – | ≥ 50% | ≥ 50% | – | –
7 | Cc1cccnc1-c1cn(-c2cccnc2)nc1C(N)=O [B-0027, 4-(3-methylpyridine-2-yl)-1-(pyridine-3-yl)-1H-pyrazole-3-carboxamide] | ≥ 50% | ≥ 50% | ≥ 50% | ≥ 50% | –
8 | Cc1ccncc1-c1cn(-c2cccnc2)nc1C(N)=O [B-0100, 4-(4-methylpyridine-3-yl)-1-(pyridine-3-yl)-1H-pyrazole-3-carboxamide] | ≥ 50% | ≥ 50% | – | ≥ 50% | –
9 | CCOC(=O)c1nn(-c2cccnc2)cc1-c1ccccc1C(F)(F)F [C-0044, Ethyl 1-(pyridine-3-yl)-4-(2-(trifluoromethyl)phenyl)-1H-pyrazole-3-carboxylate] | – | ≥ 50% | ≥ 50% | – | –
10 | CCOC(=O)c1nn(-c2cccnc2)cc1-c1ccc(Cl)cc1OC [C-0634, Ethyl 4-(4-chloro-2-methoxyphenyl)-1-(pyridine-3-yl)-1H-pyrazole-3-carboxylate] | ≥ 50% | – | – | – | –
11 | CCOC(=O)c1nn(-c2cccnc2)cc1I [D-0003, ethyl 4-iodo-1-(pyridine-3-yl)-1H-pyrazole-3-carboxylate] | – | – | ≥ 50% | ≥ 50% | –
12 | CCOC(=O)c1nn(-c2cccnc2)cc1OS(=O)(=O)C(F)(F)C(F)(F)C(F)(F)C(F)(F)F [D-0008, Ethyl 4-{[(nonafluorobutyl)sulfonyl]oxy}-1-(pyridine-3-yl)-1H-pyrazole-3-carboxylate] | – | – | – | – | ≥ 50%
13 | CCOC(=O)c1nn(-c2cccnc2)cc1-c1ncccc1C [D-0035, Ethyl 4-(3-methylpyridine-2-yl)-1-(pyridine-3-yl)-1H-pyrazole-3-carboxylate] | ≥ 50% | ≥ 50% | ≥ 50% | ≥ 50% | –
14 | CCOC(=O)c1nn(-c2cccnc2)cc1-c1cnccc1C [D-0108, Ethyl 4-(4-methylpyridine-3-yl)-1-(pyridine-3-yl)-1H-pyrazole-3-carboxylate] | ≥ 50% | – | ≥ 50% | ≥ 50% | –
15 | Cc1ccncc1-c1cn(-c2cccnc2)nc1C(=O)O [F-0108, 4-(4-methylpyridine-3-yl)-1-(pyridine-3-yl)-1H-pyrazole-3-carboxylic acid] | ≥ 50% | – | – | ≥ 50% | –
